The source of these data is publication PMC8035211 (Nature Communications, 2021).

Read-outs that look alike come from different tables or passages of the source.

For assay [1], the target named is T1, FgCelDH7C (Fusarium graminearum, UniProt I1RWY4).
T1 construct: gene FGRAMPH1_01T10923
The format is biochemical. Particulars: apparent, 0.1 mM DCIP as acceptor, 50 mM HEPES pH 7.0, 35 °C.

In assay [2] the target is T2, MoChi7A (Pyricularia oryzae, UniProt G4NAH7).
T2 construct: gene MGG_09717
The format is biochemical. Particulars: apparent; O2 as acceptor; 50 mM NaOAc pH 5.2, 35 °C; read-out: Enzyme / MoChi7A / Cellotriose.

Assay [3] has as its target T1, FgCelDH7C. The format is binding. Particulars: covalent; mono-covalent histidyl tether.
The target of assay [4] is T3, FgChi7B (Fusarium graminearum, UniProt A0A098DND1).
T3 construct: gene FGRAMPH1_01T15319
T3 sequence (A0A098DND1 21-504 limits assumed): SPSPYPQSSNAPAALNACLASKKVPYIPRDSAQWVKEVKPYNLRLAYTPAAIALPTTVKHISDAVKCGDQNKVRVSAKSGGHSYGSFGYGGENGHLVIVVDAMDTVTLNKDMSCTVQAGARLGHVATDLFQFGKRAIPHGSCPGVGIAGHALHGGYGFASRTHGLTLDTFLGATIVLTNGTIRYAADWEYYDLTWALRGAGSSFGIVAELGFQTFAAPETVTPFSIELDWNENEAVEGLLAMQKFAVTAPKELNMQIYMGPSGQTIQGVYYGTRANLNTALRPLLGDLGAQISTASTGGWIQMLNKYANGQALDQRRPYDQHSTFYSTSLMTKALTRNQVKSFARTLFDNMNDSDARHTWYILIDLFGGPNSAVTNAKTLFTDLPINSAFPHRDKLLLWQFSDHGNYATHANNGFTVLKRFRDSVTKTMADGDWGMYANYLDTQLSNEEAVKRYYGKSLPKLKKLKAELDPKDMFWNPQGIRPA
The settings on record: covalent; bi-covalent, 6-S-cysteinyl C162 and 8alpha-N1-histidyl H102.

T2 sequence (G4NAH7 21-718 limits assumed): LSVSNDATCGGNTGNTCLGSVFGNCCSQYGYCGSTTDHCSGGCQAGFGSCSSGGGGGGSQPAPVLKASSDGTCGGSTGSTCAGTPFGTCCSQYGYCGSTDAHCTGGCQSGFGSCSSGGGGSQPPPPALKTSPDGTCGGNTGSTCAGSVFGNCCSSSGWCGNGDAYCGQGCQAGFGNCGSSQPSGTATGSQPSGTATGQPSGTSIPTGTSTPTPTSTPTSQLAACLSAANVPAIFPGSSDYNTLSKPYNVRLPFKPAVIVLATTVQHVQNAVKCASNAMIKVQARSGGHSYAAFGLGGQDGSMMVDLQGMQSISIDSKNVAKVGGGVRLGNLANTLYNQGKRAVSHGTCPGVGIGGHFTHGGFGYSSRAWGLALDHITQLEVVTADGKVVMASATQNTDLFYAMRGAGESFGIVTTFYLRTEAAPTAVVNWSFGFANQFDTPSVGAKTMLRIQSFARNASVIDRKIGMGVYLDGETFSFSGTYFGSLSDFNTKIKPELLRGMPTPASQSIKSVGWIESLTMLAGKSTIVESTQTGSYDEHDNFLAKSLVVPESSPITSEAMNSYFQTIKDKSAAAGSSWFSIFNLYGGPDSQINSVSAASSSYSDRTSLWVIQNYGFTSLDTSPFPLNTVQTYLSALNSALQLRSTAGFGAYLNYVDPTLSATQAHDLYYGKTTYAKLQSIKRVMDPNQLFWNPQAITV
T1 sequence (I1RWY4 24-499 limits assumed): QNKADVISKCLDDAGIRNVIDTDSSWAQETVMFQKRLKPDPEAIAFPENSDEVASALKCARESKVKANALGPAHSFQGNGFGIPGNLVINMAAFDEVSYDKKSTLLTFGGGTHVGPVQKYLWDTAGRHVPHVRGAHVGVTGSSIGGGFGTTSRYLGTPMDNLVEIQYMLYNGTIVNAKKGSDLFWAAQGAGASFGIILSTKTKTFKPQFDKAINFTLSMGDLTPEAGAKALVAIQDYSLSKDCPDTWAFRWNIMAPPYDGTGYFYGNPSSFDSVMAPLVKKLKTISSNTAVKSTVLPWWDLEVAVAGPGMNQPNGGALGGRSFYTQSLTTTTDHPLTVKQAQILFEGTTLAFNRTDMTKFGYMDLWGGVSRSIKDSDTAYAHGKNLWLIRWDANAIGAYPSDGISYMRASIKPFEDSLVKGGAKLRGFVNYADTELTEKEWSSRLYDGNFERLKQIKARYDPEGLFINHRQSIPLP

`OC[C@H]1O[C@@H](O[C@H]2[C@H](O)[C@@H](O)C(O)O[C@@H]2CO)[C@H](O)[C@@H](O)[C@@H]1O` (some centres unmarked) [Cellobiose]: the Km in assay [1] (read-out: Parameter / Cellobiose) was 5350 ± 390 µM.

For `OC[C@H]1O[C@@H](O[C@H]2[C@H](O)[C@@H](O)[C@H](O[C@H]3[C@H](O)[C@@H](O)[C@H](O[C@H]4[C@H](O)[C@@H](O)C(O)O[C@@H]4CO)O[C@@H]3CO)O[C@@H]2CO)[C@H](O)[C@@H](O)[C@@H]1O` (some centres unmarked) [Cellotetraose], the Km in assay [1] (read-out: Enzyme / PbChi7A / Cellotetraose) was determined as 6060 ± 270 µM.

On to `OC[C@H]1O[C@@H](O[C@H]2[C@H](O)[C@@H](O)[C@H](O[C@H]3[C@H](O)[C@@H](O)C(O)O[C@@H]3CO)O[C@@H]2CO)[C@H](O)[C@@H](O)[C@@H]1O` (some centres unmarked) [Cellotriose], for which the Km in assay [1] (read-out: Enzyme / Cellotriose, read-out: Enzyme / MoChi7A / Cellotriose) was determined as 3940 ± 220 µM.

As to `CC(=O)N[C@H]1[C@H](O[C@H]2[C@H](O)[C@@H](NC(C)=O)C(O)O[C@@H]2CO)O[C@H](CO)[C@@H](O)[C@@H]1O` (some centres unmarked) [Chitobiose], in assay [2], the Km is 64 ± 10 µM.

On to `Cc1cc2nc3c(=O)[nH]c(=O)nc-3n(C[C@H](O)[C@H](O)[C@H](O)COP(=O)(O)OP(=O)(O)OC[C@H]3O[C@@H](n4cnc5c(N)ncnc54)[C@H](O)[C@@H]3O)c2cc1C` [FAD], for which the “crystal structure, 1.6 Å” value in assay [3] is “FgCelDH7C is mono-covalently histidyl-tethered due to the substitution of the FAD-tethering cysteine to a glycine”. Also, in assay [4], the “crystal structure, 2.4 Å” value was “isoalloxazine ring of the FAD cofactor in FgChi7B is bi-covalently anchored at the C6 atom”.

On to `CC(=O)N[C@H]1C(O)O[C@H](CO)[C@H](O)[C@@H]1O` (some centres unmarked) [GalNAc], for which the Km in assay [2] is 1690 ± 120 µM.

With `CC(=O)N[C@H]1C(O)O[C@H](CO)[C@@H](O)[C@@H]1O` (some centres unmarked) [GlcNAc], the Km in assay [2] amounted to 800 ± 50 µM.
